{
  "source": "patent US20060019936A1",
  "about": "(priority 2004, published 2006)",
  "key": {"c-Myc": {"tested_on": "c-Myc", "assay": "c-Myc protein levels in LNCaP cells", "assay_type": "cell-based, human"}, "PARP": {"tested_on": "PARP", "assay_type": "cell-based, human"}, "LNCaP cells [1]": {"tested_on": "LNCaP cells", "assay": "Cell cycle analysis by flow cytometry", "assay_type": "cell-based, human", "settings": "for cell cycle arrest: LNCaP cells"}, "LNCaP cells [2]": {"tested_on": "LNCaP cells", "assay_type": "cell-based, human"}, "p45 Skp2": {"tested_on": "p45 Skp2", "assay_type": "cell-based, human"}, "p27 (Kip1)": {"tested_on": "p27 (Kip1)", "assay_type": "cell-based, human"}, "p70S6K": {"tested_on": "p70S6K", "assay": "Phosphorylation status of p70S6K in LNCaP cells", "assay_type": "cell-based, human"}, "LNCaP cells [3]": {"tested_on": "LNCaP cells", "assay_type": "cell-based, human", "remark": "listed apart in the source"}, "p21 (WAF1/Cip1)": {"tested_on": "p21 (WAF1/Cip1)", "assay_type": "cell-based, human"}, "LNCaP cells [4]": {"tested_on": "LNCaP cells", "assay": "DNA fragmentation by agarose gel electrophoresis", "assay_type": "cell-based, human", "settings": "24 h exposure"}, "Bid": {"tested_on": "Bid", "assay": "Bid cleavage analysis", "assay_type": "cell-based, human", "settings": "LNCaP cells"}, "[5]": {"tested_on": "LNCaP, PC3 and DU145 cells", "assay": "Differential sensitivity of AR positive and AR negative cells", "assay_type": "cell-based, human", "settings": "dose of 10 μM", "procedure": "AR positive LNCaP cells were 7-fold more sensitive than AR negative PC3 and DU145 cells at a dose of 10 μM. Investigations on similar molecules in which a ligand for the estrogen receptor (ER) was tethered to the same DNA damaging warhead, a similar (but slightly smaller) differential toxicity in favor of killing ER positive cells was observed."}, "[6]": {"assay": "Pharmacokinetics / plasma levels in mice"}, "4E-BP1": {"tested_on": "4E-BP1", "assay": "Phosphorylation status of 4E-BP1 in LNCaP cells", "assay_type": "cell-based, human"}, "[7]": {"tested_on": "LNCaP cells grown as a xenograft", "assay": "LNCaP xenograft in nude mice", "assay_type": "in vivo", "settings": "seven weekly five-day cycles of 30 mg/kg IP", "procedure": "The efficacy of 11β-dichloro was examined toward LNCaP cells grown as a xenograft in nude mice. […] Animals bearing LNCaP xenografts were treated with seven consecutive weekly five-day cycles of 30 mg 11β-dichloro/kg administered via IP injection.\nAnimal Studies. Four to six week old NIH Swiss nu/nu athymic male mice (25 gm) were obtained from the National Cancer Institute-Frederick Cancer Center (Frederick, Md.). Experiments were carried out under guidelines of the MIT Animal Care Committee. Animals were injected subcutaneously in the right flank with 5×10^6 LNCaP cells suspended in a solution of 50% PBS/50% Matrigel (Collaborative Research, Bedford, Mass.). Therapy commenced when a palpable tumor of approximately 4×4 mm formed (n=5 per treatment group). The 11β-dichloro compound was dissolved in a vehicle composed of cremophor EL, saline and ethanol (43:30:27). Tumor dimensions were measured with vernier calipers. Tumor volumes were calculated using the formula: π/6×larger diameter×(smaller diameter)^2. Statistical analyses were performed using a paired t-test. At the end of the study period, animals were euthanized with CO2. At the time of sacrifice, blood samples were taken from several animals in each group for a complete blood count, along with serum chemistry and liver function analyses. A complete necropsy was also performed, including histopathology on two animals from each group."}, "[8]": {"tested_on": "human colon adenocarcinoma cell line DLD-1", "assay": "DLD-1 xenograft in nude mice", "assay_type": "in vivo"}, "LNCaP cells [9]": {"tested_on": "LNCaP cells", "assay": "Annexin V staining and flow cytometry", "assay_type": "cell-based, human", "settings": "treatment for 15 h"}, "liver DNA": {"tested_on": "liver DNA", "assay": "DNA adduct formation in liver of treated mice", "assay_type": "in vivo", "settings": "two hours post dosing", "procedure": "A set of in vivo studies was performed to assess the stability and biodistribution of the 11β-dichloro compound in mice. These studies required formulation of the compound in a vehicle that would deliver the compound to the tissues following IP or IV administration. The vehicle was Cremophor EL:ethanol:saline (40:30:30 by volume). […] For 2 to 3 hours the compound was present above the […] concentration at which good differential toxicity in favor of killing LNCaP cells in culture was observed. There was also evidence that the intact molecule reached its intended biological target—cellular DNA."}, "AR from LNCaP cells": {"biological_target": "T1, AR from LNCaP cells (Homo sapiens, UniProt P10275, T878A)", "T1 construct": "Whole cell extracts prepared from LNCaP and T47D cells were used as sources of the AR and PR respectively; endogenous in cells; host or cells: LNCaP whole cell extract", "T1 sequence (P10275 whole entry T878A)": "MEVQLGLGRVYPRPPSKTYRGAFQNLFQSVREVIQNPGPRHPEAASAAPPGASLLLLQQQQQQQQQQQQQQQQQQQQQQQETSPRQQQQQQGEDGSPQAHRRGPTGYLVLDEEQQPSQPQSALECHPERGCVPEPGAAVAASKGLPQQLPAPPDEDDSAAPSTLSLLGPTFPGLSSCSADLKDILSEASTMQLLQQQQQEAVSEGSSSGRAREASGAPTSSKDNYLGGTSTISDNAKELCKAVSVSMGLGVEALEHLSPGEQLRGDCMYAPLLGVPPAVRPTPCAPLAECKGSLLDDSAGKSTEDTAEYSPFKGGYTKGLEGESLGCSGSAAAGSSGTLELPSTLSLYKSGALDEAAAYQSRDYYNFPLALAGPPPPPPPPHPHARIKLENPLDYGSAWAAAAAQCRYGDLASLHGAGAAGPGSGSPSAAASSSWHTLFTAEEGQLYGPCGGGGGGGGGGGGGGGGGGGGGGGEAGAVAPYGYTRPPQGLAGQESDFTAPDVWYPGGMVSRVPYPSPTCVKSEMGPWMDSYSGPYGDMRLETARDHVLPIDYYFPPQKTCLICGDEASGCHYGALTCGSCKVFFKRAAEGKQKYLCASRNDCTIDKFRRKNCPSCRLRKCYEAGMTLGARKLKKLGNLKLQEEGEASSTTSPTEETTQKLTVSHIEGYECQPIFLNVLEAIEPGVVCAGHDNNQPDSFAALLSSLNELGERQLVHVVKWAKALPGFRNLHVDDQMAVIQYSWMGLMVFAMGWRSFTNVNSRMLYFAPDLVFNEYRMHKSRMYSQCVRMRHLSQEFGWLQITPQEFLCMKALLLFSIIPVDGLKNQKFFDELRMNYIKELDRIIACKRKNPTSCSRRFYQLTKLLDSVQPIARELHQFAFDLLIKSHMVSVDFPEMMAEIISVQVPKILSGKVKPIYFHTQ", "assay": "Competitive binding assay for the AR (relative binding affinity)", "settings": "dihydrotestosterone RBA=100"}, "[10]": {"tested_on": "engineered estrogen receptor ligand binding domain-positive HeLa cell line", "assay": "ER ligand binding domain-positive HeLa xenograft in nude mice", "assay_type": "in vivo"}},
  "note": "Entries after “also recorded” stand apart in the source; their conditions may differ. Where two headings read alike, the source gives them in different places.",
  "data": [
    {"smiles": "COCCN(CCOC)c1ccc(CCCNC(=O)OCCNCCCCCCC2CC3(C)C(O)CCC3C3CCC4=CC(=O)CCC4=C23)cc1", "note": "(stereo not drawn) [11β-dimethoxy]", "values": [
      {"measurement": "levels of the c-Myc protein", "setting": "c-Myc", "value": "causes c-Myc levels to drop"},
      {"measurement": "cleavage of PARP", "setting": "PARP", "value": "No cleavage"},
      {"measurement": "LNCaP cells in G1", "setting": "LNCaP cells [1]; 10 uM for 20 hr, flow cytometry", "value": "> 90", "unit": "%"},
      {"measurement": "cell cycle arrest", "setting": "LNCaP cells [1]", "value": "halt, albeit transiently, the growth of LNCaP cells in the G1 phase of the cell cycle"},
      {"measurement": "changes in LNCaP cell shape", "setting": "LNCaP cells [2]", "value": "slight contraction, which was reversed by 24 h"},
      {"measurement": "levels of Skp2", "setting": "p45 Skp2", "value": "decreased"},
      {"measurement": "levels of p27", "setting": "p27 (Kip1)", "value": "increased"},
      {"measurement": "effect on p70S6K", "setting": "p70S6K", "value": "inhibits p70S6K"},
      {"measurement": "apoptotic response", "setting": "LNCaP cells [3]", "value": "did not activate an apoptotic response; also recorded: does not induce markers of apoptosis"},
      {"measurement": "toxic effect / cell killing", "setting": "LNCaP cells [3]", "value": "transient toxic effect but does not kill cells"},
      {"measurement": "eventual levels of p21", "setting": "p21 (WAF1/Cip1)", "value": "recovered to basal levels"},
      {"measurement": "initial change in levels of p21", "setting": "p21 (WAF1/Cip1)", "value": "initially decreased"}
    ]},
    {"smiles": "O=C(O)CCCc1ccc(N(CCCl)CCCl)cc1", "note": "[Chlorambucil, reference compound]", "values": [
      {"measurement": "DNA fragmentation", "setting": "LNCaP cells [4]; 20 μM", "value": "No changes"},
      {"measurement": "cleavage of PARP", "setting": "PARP; 20 μM, LNCaP cells", "value": "No cleavage"},
      {"measurement": "Bid cleavage", "setting": "Bid", "value": "No changes"},
      {"measurement": "changes in LNCaP cell shape", "setting": "LNCaP cells [2]", "value": "no effect on cellular shape"},
      {"measurement": "levels of Skp2", "setting": "p45 Skp2; LNCaP cells, 20 μM, up to 15 h", "value": "unaffected"},
      {"measurement": "levels of p27", "setting": "p27 (Kip1); LNCaP cells, 20 μM, up to 15 h", "value": "without effect"},
      {"measurement": "apoptotic response", "setting": "LNCaP cells [3]; LNCaP cells, single agent", "value": "fails to induce apoptosis"},
      {"measurement": "levels of p21", "setting": "p21 (WAF1/Cip1); LNCaP cells, 20 μM, up to 15 h", "value": "potent inducer of p21"}
    ]},
    {"smiles": "CC12CC(CCCCCCNCCOC(=O)NCCCc3ccc(N(CCCl)CCCl)cc3)C3=C4CCC(=O)C=C4CCC3C1CCC2O", "note": "(stereo not drawn) [Compound 11β-dichloro, 11β-{N-(2-(N-((N,N-bis-2-chloroethylaminophenyl)propyl)-carbamoyloxy)ethyl)aminohexyl}-17β-hydroxy-estra-Δ4(5),9(10)-3-one]", "values": [
      {"measurement": "DNA fragmentation", "setting": "LNCaP cells [4]; 10 μM", "value": "DNA fragmentation occurs"},
      {"measurement": "sensitivity of AR positive LNCaP cells relative to AR negative PC3 and DU145 cells", "setting": "[5]", "value": 7, "unit": "fold"},
      {"measurement": "plasma levels", "setting": "[6]; IP injection of radiolabeled compound, within 30 min", "value": "30 to 40", "unit": "µM"},
      {"measurement": "intact compound in plasma by HPLC", "setting": "[6]; at 1 hour, along with several minor unidentified metabolites", "value": "lower concentrations"},
      {"measurement": "levels of the c-Myc protein", "setting": "c-Myc", "value": "decreased rapidly"},
      {"measurement": "phosphorylation of 4E-BP1", "setting": "4E-BP1", "value": "rapid disappearance of phosphate groups"},
      {"measurement": "time to cleavage of PARP", "setting": "PARP; 10 μM, LNCaP cells", "value": "≤ 9", "unit": "h"},
      {"measurement": "cell cycle arrest", "setting": "LNCaP cells [1]", "value": "did not arrest cells in a specific point in the cell cycle"},
      {"measurement": "tumor growth of LNCaP xenograft", "setting": "[7]", "value": "inhibition of tumor growth"},
      {"measurement": "tumor growth of DLD-1 xenograft", "setting": "[8]", "value": "Inhibition of tumor growth"},
      {"measurement": "concentration showing increased Annexin V staining", "setting": "LNCaP cells [9]", "value": "> 5", "unit": "µM"},
      {"measurement": "changes in LNCaP cell shape", "setting": "LNCaP cells [2]", "value": "dramatic contraction and detachment"},
      {"measurement": "levels of Skp2", "setting": "p45 Skp2; LNCaP cells, 10 μM, up to 15 h", "value": "decreased"},
      {"measurement": "levels of p27", "setting": "p27 (Kip1); LNCaP cells, 10 μM, up to 15 h", "value": "increased"},
      {"measurement": "DNA adducts formed by the intact compound in liver", "setting": "liver DNA", "value": "isolated from liver DNA of treated animals"},
      {"measurement": "time to removal of the phosphate on Th389 of p70S6K", "setting": "p70S6K; after addition to cells", "value": "≤ 30", "unit": "min"},
      {"measurement": "apoptotic response", "setting": "LNCaP cells [3]; LNCaP cells, single agent", "value": "LNCaP cells undergo apoptosis; also recorded: potent inducer of apoptosis and cell death; also recorded: activates an apoptotic response resulting in destruction of cells"},
      {"measurement": "RBA (Relative Binding Affinity) for the AR", "setting": "AR from LNCaP cells", "value": 33},
      {"measurement": "initial change in levels of p21", "setting": "p21 (WAF1/Cip1); LNCaP cells, 10 μM", "value": "initially decreased"},
      {"measurement": "increase in level of p21", "setting": "p21 (WAF1/Cip1); LNCaP cells, 10 μM, up to 15 h", "value": 9, "unit": "fold"},
      {"measurement": "tumor growth of ER-LBD-positive HeLa xenograft", "setting": "[10]", "value": "Inhibition of tumor growth"}
    ]}
  ]
}
